From patent publication US10071103B2, “Treatments for resistant acne” (VYOME BIOSCIENCES PVT. LTD., priority 2014, dated 2018)
Converted amounts (≈) assume the structure as drawn.

Columns and labels:
[1] = system: IL-6; assay: P. acnes-induced IL-6 release in THP-1 cells (ELISA); format: cell-based; details: THP-1 cells
Method: (§1) Method: Preparation of Stimulant for Inflammation: P. acnes culture suspension was prepared in PBS and the cell number in the suspension was adjusted to approximately 5×10^8 CFU/ml by measuring the cell density using a Densimat. The bacterial suspension was then heat killed at 80° C. for 30 min and stored at −80° C. until further use.
(§2) Cells were seeded in a 96-well format (2×10^5 THP-1 cells per well) in media containing 10% FBS. The cells were stimulated to induce inflammatory cytokines using 3 McFarland equivalent heat-killed P. acnes. Cells in control wells were treated with PBS. One hour after induction with P. acnes, test agents were added to the induced cells at appropriate concentrations to be tested (compound 91 at 25 μg/ml). The plates were incubated at 37° C. for 24 hours. After 24 h, the plates were centrifuged to pellet the cells and the supernatants were collected. The cell culture supernatants thus obtained were analyzed for levels of cytokines (IL-1α, IL-1β, IL-6 and IL-8) by ELISA using R&D Systems kits for individual cytokines following the manufacturer's instructions.
as §1, with “Preparation” for “Method: Preparation”, “stimulant” for “Stimulant”, “inflammation:” for “Inflammation:”
(§3) Cells were seeded in a 96-well format (2×10^5 THP-1 cells per well) in media containing 10% FBS. The cells were stimulated to induce inflammatory cytokines using 3 McFarland equivalent heat-killed P. acnes. Cells in control wells were treated with PBS. One hour after induction with P. acnes, test agents were added to the induced cells at appropriate concentrations (Besifloxacin at 10 and 30 μg/ml; Adapalene at 0.04 and 0.4 μg/ml). The plates were incubated at 37° C. for 24 hours. After 24 h, the plates were centrifuged to pellet the cells and the supernatants were collected. The cell culture supernatants thus obtained were analyzed for cytokine levels (IL-6 and IL-8) by ELISA using R&D Systems kits for individual cytokines following the manufacturer's instructions.

[2] = system: IL-8; assay: P. acnes-induced IL-8 release in THP-1 cells (ELISA); format: cell-based; details: THP-1 cells
Method: as §1, §2
as §1, with “Preparation” for “Method: Preparation”, “stimulant” for “Stimulant”, “inflammation:” for “Inflammation:”
as §3

[3] = system: P. acnes CCARM 9010; assay: In vitro time kill kinetics, P. acnes CCARM 9010; format: cell-based, Propionibacterium acnes; details: 2.5 μg/ml
Method: P. acnes (CCARM 9010) Aqueous Suspension (0.5 McFarland standard equivalent) was centrifuged at 2000 rpm for 20 min, pellet was resuspended in Brain Heart Infusion (BHI) broth. Resultant P. acnes suspension was kept for overnight (16 h) incubation in anaerobic box at 37° C. Stock solution of besifloxacin.HCl (1 mg/ml) was prepared in dimethyl sulphoxide (DMSO) which was further diluted with BHI broth to achieve working stock of besifloxacin.HCl (25 μg/ml). Then reaction mixture was prepared by adding 900 μl of P. acnes 0.5 McFarland standard culture (after 16 h incubation) to 100 μl of besifloxacin.HCl working stock solution (25 μg/ml), final besifloxacin.HCl concentration in reaction mixture was 2.5 μg/ml. Reaction mixture (1 ml) was incubated at 37° C. for 24 h in an anaerobic box in two sets—(1) tube with P. acnes with 2.5 μg/ml Besifloxacin.HCl and 2) broth control without besifloxacin.HCl. At predetermined time points (1 h, 6 h and 24 h), cells were collected and plated in duplicate after serial dilution in Brain Heart Infusion agar plate. Plates were allowed to grow for 3 days at 37° C. in anaerobic box. After incubation, plates were counted to determine colony forming units (CFU) and log reduction was calculated. In a similar experimental set-up, water was used as solvent instead of DMSO and effects of solvents on time kill kinetics were also studied.
2) Zone of Inhibition (ZOI): For ZOI test, BHA plates were spread with 100 μl of P. acnes suspension (0.5 McFarland standard equal). Test samples (drugs/formulations) were dissolved in water/solvent based on the solubility. Sterile disc (6 mm) were loaded with 10 μl of test samples (of various concentration of drug), and were placed above the plates containing P. acnes culture. Then, plates were incubated at 37° C. for 48 h, followed by their ZOI measurements. 3) Time Kill Kinetics (TK): For TK Test, P. acnes (CCARM 9010) aqueous suspension (0.5 McFarland standard equivalent) was centrifuged at 2000 rpm for 20 min, pellet was resuspended in brain heart infusion (BHI) broth. Resultant P. acnes suspension was kept for overnight (16 h) incubation in anaerobic box at 37° C. Stock solution of besifloxacin.HCl (1 mg/ml) was prepared in dimethyl sulphoxide (DMSO) which was further diluted with BHI broth to obtain working stock of besifloxacin.HCl (25 μg/ml). Then reaction mixture was prepared by adding 900 μl of P. acnes 0.5 McFarland standard equal culture (after 16 h of incubation) and 100 μl of besifloxacin.HCl working stock (25 μg/ml), to obtain final besifloxacin.HCl concentration in reaction mixture, 2.5 μg/ml. Reaction mixture (1 ml) was incubated at 37° C. in an anaerobic box—(1) tube with P. acnes and 2.5 μg/ml Besifloxacin.HCl and 2) broth control without besifloxacin.HCl for 24 h. At predetermined time points (0 h, 2 h, 8 h and 24 h), cells were collected and plated in duplicate after serial dilution in brain heart infusion agar plate. Plates were allowed to grow for 3 days at 37° C. in anaerobic box. After incubation, plates were counted to determine colony forming units (CFU) and log reduction was calculated.
0.5 McFarland standard equal P. acnes (CCARM 9010) culture was prepared in sterile water. Prepared culture was centrifuged at 2000 rpm for 20 min then supernatant was removed and similar amount of brain heart infusion (BHI) broth was added. P. acnes culture in BHI broth was kept for overnight (16 h.) incubation in anaerobic box at 37° C. Besifloxacin powder was diluted in water and DMSO to prepare 1 mg/ml stock and then both were further diluted in BHI broth to make final concentration of 100 μg/ml. 900 μl of P. acnes 0.5 McFarland culture (after 16 h. incubation) and 100 μl of diluted Besifloxacin (100 μg/ml) were mixed to obtain final Besifloxacin concentration 10 μg/ml in reaction mixture. Total reaction mixture (1 ml) was incubated at 37° C. in an anaerobic box.

[4] = system: P. acnes MTCC 1951; assay: MIC by micro broth dilution (Alamar blue), clindamycin-susceptible P. acnes; format: cell-based, Propionibacterium acnes; details: for Activity / bacterial killing, dose response curve (in words): clindamycin-susceptible MTCC 1951
Method: (§4) The plates were incubated at 37° C. for 48 h under anaerobic condition for P. acnes and 37° C. for 24 h for S. aureus The plates were read under Bio-Rad plate reader at 595 nm for optical density to generate the dose-response curves. The MIC of the test compound was recorded by addition of Alamar blue dye.
(§5) P. acnes (MTCC 3297, MTCC 1951& CCARM 9010) are cultured in Brain Heart Infusion (BHI) Broth at 37° C. for 48-72 h under anaerobic condition. The test compounds/formulations are initially diluted with suitable solvent and further diluted with BHI broth to get the required concentrations. Samples (100 μl) of different concentrations (prepared by serial dilution) are added to 96-well plate. To the wells, 100 μl of P. acnes BHI broth culture is added [culture turbidity adjusted against 0.5 McFarland standard (approx 1.5×10^8), and further diluted 100-fold with sterile BHI broth]. In addition Growth Control and Sterility Control are created using 100 μl each of P. acnes BHI broth culture and plain BHI broth, respectively.
(§6) Plates are incubated at 37° C. for 48-72 hrs under anaerobic condition. The plate is read under Bio-Rad plate reader @ 595 nm for optical density to generate the dose-response curves. The MIC of the test compound is recorded by addition of Alamar blue dye.
BHI broth and BHI agar media were prepared as per the manufacturer's instruction and autoclaved at 121° C. for 15 minutes. […] For MIC determination testing, gels are dissolved in the solvent and further diluted with BHI broth. Then, 96 wells plate are filled with 100 μl of BHI broth containing drug with different concentration to get the final concentrations of 0.06, 0.13, 0.25, 0.5, 1 and 2 μg/ml in different lanes (lane 1 to lane 6). Remaining lanes of the 96 well plate are used as growth control and sterility control. Finally, P. acnes culture suspension (approx 1.5×10^6) is added in all the wells except sterility control wells and plate is incubated at 37° C. for 48-72 h under anaerobic condition. At the end of 72 h, Alamar blue solution (20 μl) is added into the wells and incubated at 37° C. for 2 h. Plate is visualized for bacterial inhibitions and MIC values of the tested samples are determined. […]

[5] = target: T1, E. coli DNA gyrase (Escherichia coli, UniProt P0AES4+P0AES6); assay: DNA gyrase super-coiling activity assay (Topogen kit, relaxed pHOT1 plasmid); format: biochemical; details: 1 μM and 2.5 μM
T1 construct: purchased Topogen Inc
Method: DNA super-coiling activity was assayed using DNA gyrase assay kit (Topogen Inc.) with relaxed pHOT1 E. coli plasmid DNA according to manufacturer's protocol. The standard reaction mixture (20 μl) contained 35 mM Tris-HCl (pH 7.5), 24 mM KCl, 4 mM MgCl2, 2 mM dithiothreitol, 1.8 mM spermidine, 1 mM ATP, 6.5% glycerol, 0.1 mg/ml bovine serum albumin (BSA), 10 μg/ml relaxed pHOT1 plasmid DNA and 1 U of DNA gyrase. The reaction mixture was incubated at 37° C. for 1 h in presence of selected compounds/fluoroquinolone at different concentrations. The reaction was terminated by addition of ⅕ volume of loading dye (4 μl) followed by proteinase K (50 μg/ml) and again incubated at 37° C. for half an hour. 20 μl chloroform/isoamyl alcohol (24:1) was added to each tube and vortexed briefly. Thereafter, the blue aqueous phase was separated out and analyzed by 1% agarose gel electrophoresis. The gel was stained by ethidium bromide for half an hour and destained with water for 15 mins. The gel was then visualized in a trans-illuminator and photographed.

[6] = system: P. acnes CCARM 9010; assay: MIC by micro broth dilution (Alamar blue), clindamycin-resistant/nonresponsive P. acnes; format: cell-based, Propionibacterium acnes; details: for Activity / bacterial killing, dose response curve (in words): clindamycin-nonresponsive CCARM 9010
Method: as §4, §5, §6

[7] = system: S. aureus MTCC 6908; assay: MIC by micro broth dilution, laboratory S. aureus strain; format: cell-based, Staphylococcus aureus; details: Staphylococcus aureus, MTCC6908; Table 6; read-out: MIC Susceptible S. aureus (6908) strain
Method: as §4
S. aureus MTCC 6908 were grown in Tryptone Soya Agar (TSA) at 37° C. for 24 hours. […] Plates were incubated at 37° C. for 24 hours. […] (2) Zone of Inhibition (ZOI): S. aureus MTCC 6908 were grown in Tryptone Soya Agar (TSA) at 37° C. for 24 hours. BHA plates are spreaded with 100 μl of 0.5 McFarland standard equal bacterial suspension. Test samples (drugs/formulations) were dissolved in water/solvent based on the solubility. Sterile disc (6 mm) were loaded with 10 μl of test samples (of various concentration of drug), and were placed above the spreaded plates. Plates were incubated at 37 C for 24 h, followed by ZOI measurement. (3) Time Kill Assay: 0.5 McFarland standard equal S. aureus culture was prepared in sterile water. Besifloxacin gels were diluted in Tryptone Soya broth (TSB) to get final concentration of 25 μg/ml. Then 900 μl of S. aureus 0.5 McFarland standard equal culture and 100 μl of diluted Besifloxacin gel was mixed to obtain final Besifloxacin concentration, 2.5 μl g/ml. Total reaction mixture (1 ml) was incubated at 37° C. in a tube rotator. After 2 and 6 h exposure, bacterial suspension was placed on Tryptone soya agar plate and incubated at 37° C. for 24 h.
Inoculated plates were incubated at 37° C. for 24 hours.

[8] = Cells + P. acnes + 10 μg/ml, 24 h, Table 70
[9] = Cells + P. acnes + 30 μg/ml, 24 h, Table 70
[10] = Cells + P. acnes + Besifloxacin•HCl 10 μg/ml, Table 71

T1 sequence (P0AES4 whole entry, one chain of several): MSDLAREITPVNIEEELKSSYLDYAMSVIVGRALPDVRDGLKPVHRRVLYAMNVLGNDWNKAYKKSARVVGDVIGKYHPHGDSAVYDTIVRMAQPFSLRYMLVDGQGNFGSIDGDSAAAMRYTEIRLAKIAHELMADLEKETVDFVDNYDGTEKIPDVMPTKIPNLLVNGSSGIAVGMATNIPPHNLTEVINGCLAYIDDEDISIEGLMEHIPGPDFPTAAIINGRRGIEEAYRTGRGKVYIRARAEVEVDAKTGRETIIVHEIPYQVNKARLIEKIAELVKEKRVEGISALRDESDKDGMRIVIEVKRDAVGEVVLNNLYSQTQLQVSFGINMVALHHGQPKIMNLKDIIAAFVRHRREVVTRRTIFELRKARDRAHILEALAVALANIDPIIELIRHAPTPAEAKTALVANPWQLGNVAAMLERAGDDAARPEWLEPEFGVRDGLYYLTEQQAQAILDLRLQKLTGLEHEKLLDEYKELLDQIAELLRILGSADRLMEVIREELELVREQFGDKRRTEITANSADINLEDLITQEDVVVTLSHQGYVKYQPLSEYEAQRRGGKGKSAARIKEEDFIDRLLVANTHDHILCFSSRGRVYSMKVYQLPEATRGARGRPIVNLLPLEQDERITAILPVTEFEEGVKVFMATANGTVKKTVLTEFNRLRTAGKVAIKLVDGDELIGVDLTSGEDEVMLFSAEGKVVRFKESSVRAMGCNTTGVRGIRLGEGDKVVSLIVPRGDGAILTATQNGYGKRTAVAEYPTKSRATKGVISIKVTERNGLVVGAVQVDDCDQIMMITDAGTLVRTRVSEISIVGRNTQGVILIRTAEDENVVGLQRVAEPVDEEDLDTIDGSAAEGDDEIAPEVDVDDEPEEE

Cl.N[C@@H]1CCCCN(c2c(F)cc3c(=O)c(C(=O)O)cn(C4CC4)c3c2Cl)C1 [Besifloxacin•HCl]
Expression of Cytokines IL-6 (pg/ml) Mean [1, 8]: 282.45 pg/mL
Expression of Cytokines IL-6 (pg/ml) Mean [1, 9]: 124.58 pg/mL
Expression of Cytokines IL-6 (pg/ml) Mean [1, 10]: 282.45 pg/mL
Expression of Cytokines IL-8 (pg/ml) Mean [2, 8]: 2484.8 pg/mL
Expression of Cytokines IL-8 (pg/ml) Mean [2, 9]: 2301.6 pg/mL
Expression of Cytokines IL-8 (pg/ml) Mean [2, 10]: 2484.76 pg/mL
Log 10 value of P. acnes ([3]; stock in DMSO, 0 h): 7.0 ± 0.02
Log 10 value of P. acnes ([3]; stock in DMSO, 1 h): 6.7 ± 0.03
Log 10 value of P. acnes ([3]; stock in DMSO, 6 h): 6.0 ± 0.05
Log 10 value of P. acnes ([3]; stock in DMSO, 24 h): 5.2 ± 0.02
Log 10 value of P. acnes ([3]; stock in water, 0 h): 7.0 ± 0.02
Log 10 value of P. acnes ([3]; stock in water, 1 h): 6.7 ± 0.03
Log 10 value of P. acnes ([3]; stock in water, 6 h): 6.0 ± 0.02
Log 10 value of P. acnes ([3]; stock in water, 24 h): 5.2 ± 0.02

Cc1ncc([N+](=O)[O-])n1CC(CCl)OC(=O)CN1CCN(c2cc3c(cc2F)c(=O)c(C(=O)O)c2n3C(C)S2)CC1 (stereo not shown) [Compound 90, 7-{4-[1-Chloromethyl-2-(2-methyl-5-nitro-imidazol-1-yl)-ethoxycarbonylmethyl]-piperazin-1-yl}-6-fluoro-1-methyl-4-oxo-4H-2-thia-8b-aza-cyclobuta[a]naphthalene-3-carboxylic acid]
MIC ([4]; Cutibacterium acnes, MTCC1951, read-out: MIC Susceptible P. acnes (1951) strain): 1.7 µg/mL (≈ 2.79 µM)
Activity / bacterial killing, dose response curve (in words) [4]: ineffective
Activity / bacterial killing, dose response curve (in words) ([4]; listed as compound 90): not active
Inhibition of super-coiling activity of DNA gyrase (in words) [5]: able to inhibit the super-coiling activity
MIC ([6]; Cutibacterium acnes, CCARM9010, read-out: MIC Resistant P. acnes (9010) strain): 0.9 µg/mL (≈ 1.48 µM)
Activity / bacterial killing, dose response curve (in words) [6]: shows activity
Activity / bacterial killing, dose response curve (in words) ([6]; listed as compound 90): promising activity
MIC [7]: 1 µg/mL (≈ 1.64 µM)
